Two substances from patent US10704064B2, “Recombinant yeast producing 3-hydroxypropionic acid and method for producing 3-hydroxypropionic acid using the same” (SK Innovation Co., Ltd., priority 2014, dated 2020) can be followed below.

The subject of assay [1] is ACC1. As to the kind of experiment: ACC radioactive enzyme assay (14C carbonate) from yeast cell lysates. As to conditions: strains of Table 13, FIG. 2. Format: biochemical, S. cerevisiae. The source says: The most commonly used in vitro ACC assay is based on the usage of radioactive ^14C carbonate. The incorporation of radioactive carbonate into an acid and a non-volatile material (i.e. malonyl-CoA) is followed. The ^14C-labelled sodium bicarbonate which has not been converted to malonyl-CoA is removed by an acid and heat treatment which converts the remaining NaH14CO3 and the possible side products of the reaction into ^14C-labelled CO2.
This assay described by Diacovich et al. (2002, J. Biol. Chem. 277:31228-31236) has been used to detect ACC activity from yeast lysates (Shi et al. 2014, mBIO 5:3 e01130-14) with slight modifications. The cell lysates were prepared from yeast cells harvested during late exponential or stationary phase. The cells were washed and then resuspended in lysis buffer containing 100 mM potassium phosphate pH 7.5, 2 mM MgCl2, 1 mM dithiothreitol and 1×EDTA free Complete protease inhibitor (Roche). The cells were disrupted by glass beads and the supernatant was collected after centrifugation at 4° C. […]
The reaction was incubated at 30° C. for 15 min, and stopped by adding 50 μL of 5 M HCl. […] The ^14C content of the samples was determined using a liquid scintillation counter (PerkinElmer Tri-Carb 2810TR). […]
The radioactive ACC enzyme assay is very sensitive, even pmol/mg/min activities can be detected. […]

The subject of assay [2] is AADH. In words: AADH in vitro enzyme activity assay from yeast cell lysates. The format is biochemical. As to conditions: in vitro, expressed in yeast. The procedure:
AADH activity was measured as described by Kozak et al. (2014, Metab. Eng. 21:46-59) by monitoring the reduction of NAD^+ at 340 nm at 30° C. The yeast cells for the cell lysates were collected, washed with water, and then resuspended into lysis buffer containing 100 mM Tris-HCl buffer (pH 7.5) and 1×EDTA free protease inhibitor cocktail (Roche). The cells were lysed with glass beads in a Precellys 24 homogenizer at 5500 rpm for 3×40 seconds and kept on ice between rounds. Lysates were centrifuged at 16 000 g for 20 min at 4° C. and supernatants were collected. The total protein concentration was determined using the Bradford method.
The enzyme assay reaction mixture contained 0.1 mM Coenzyme A, 50 mM CHES buffer (pH 9.5), 0.8 mM NAD^+, 0.2 mM DTT and 10 μL of cell extract in a total reaction volume of 200 μL. The reaction was started by adding 10 mM of freshly prepared acetaldehyde solution and reduction of NAD^+ was followed with a Thermo Konelab 20XT analyser.
Five AADH genes were originally chosen (i.e. ADHEpm, ADHEec, EUTec, EUTdz and LIN1129li) and transformed into the CEN.PK lab strain. These AADHs were expressed from a multicopy plasmid where they were under control of the TEF1 promoter.
Twenty additional novel AADH genes were chosen from the genome mining analyses to be evaluated for expression and enzyme activity in yeast.

Assay [3] relates to S. cerevisiae VSK-128 ACS2 deletion strain. As to the kind of experiment: AADH in vivo growth assay, ACS2 deletion strain on glucose-based agar plates. Format: cell-based. The source says:
All copies of the ACS2 gene were deleted from the industrial S. cerevisiae VSK-128 strain in order to generate a strain with a defective PDH-bypass that was incapable of growth on glucose-based medium. Expression vectors carrying the 25 different AADH variants were then transformed into this ACS2 deletion strain to evaluate their ability to recover the growth of this strain on glucose.
There was a good correlation between the in vitro AADH enzyme activity assays and the in vivo growth recovery analyses.

On to “ACCyl: acetyl-CoA carboxylase of Yarrowia lipolytica CLIB122, GenBank XP_501721.1”, for which the “relative ranking on ACC1 activity” value in assay [1] is recorded as “most promising candidate”.
Turning to “ADHEec: adhE type AADH of Escherichia coli K-12 substr. MG1655, GenBank NP_415757.1”, in assay [2], the AADH activity entry was “showed AADH activity”. The “recovery of the growth deficiency of the ACS2-deletion strain” value in assay [3] was “capable of recovering the growth deficiency”.
